In general, IC50 refers to the concentration that gives 50% inhibition. High values mean lower potency, low ones higher potency.

Drawing on paper PMC3690538, “Structure of Rhomboid Protease in Complex with β-Lactam Inhibitors Defines the S2′ Cavity” (Structure(London, England:1993), 2013), this text covers IC50 for 5 compounds.

The target in this experiment is T1, GlpG (Escherichia coli, UniProt P09391).
T1 construct: purified intramembrane serine protease in detergent
T1 sequence (P09391 1-276): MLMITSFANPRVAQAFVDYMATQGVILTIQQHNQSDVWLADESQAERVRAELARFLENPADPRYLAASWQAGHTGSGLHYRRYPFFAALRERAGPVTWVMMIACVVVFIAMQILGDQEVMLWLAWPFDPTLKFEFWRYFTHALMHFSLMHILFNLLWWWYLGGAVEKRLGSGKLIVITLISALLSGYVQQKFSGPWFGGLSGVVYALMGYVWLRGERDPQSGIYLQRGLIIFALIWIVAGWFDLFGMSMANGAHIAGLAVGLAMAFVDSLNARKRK
Briefly: gel-based substrate cleavage, SDS-PAGE densitometry, four-parameter fit. The experiment is classed as biochemical.

Take `O=C1CC(c2ccccc2)N1C(=O)Oc1ccccc1` (racemic) [L29]: half-maximal inhibition (IC50) required 1120 ± 50 nM.
For `CC(C)COC(=O)N1C(=O)CC1c1ccccc1` (racemic) [L61] the value was 11700 ± 750 nM.
For `O=C1CC(c2ccccc2)N1C(=O)OC1CCCC1` (racemic) [L62] the value was 5270 ± 80 nM; for `O=C1CC(c2ccccc2)N1C(=O)OCc1ccccc1` (centres unmarked) [L59], 728 ± 60 nM; for `O=C1CC(c2ccccc2)N1C(=O)Oc1ccc(Cl)cc1` (centres unmarked) [L60], 1090 ± 30 nM.
